Measured values as given in patent US20110288106A1, “ADENINE RECEPTOR LIGANDS” (Rheinische Friedrich-Wilhelms-Universitaet Bonn …, priority 2008, published 2011).
Structures can show the parent of a compound that is named as a salt.

What was measured:
[1] = target: T1, rAde1R (Rattus norvegicus, UniProt Q7TN49); conditions: literature, Gorzalka et al. 2005; cited from earlier work
T1 construct: expressed in transfected cells; host or cells: 1321N1 human astrocytoma cells
T1 sequence (Q7TN49 1-304): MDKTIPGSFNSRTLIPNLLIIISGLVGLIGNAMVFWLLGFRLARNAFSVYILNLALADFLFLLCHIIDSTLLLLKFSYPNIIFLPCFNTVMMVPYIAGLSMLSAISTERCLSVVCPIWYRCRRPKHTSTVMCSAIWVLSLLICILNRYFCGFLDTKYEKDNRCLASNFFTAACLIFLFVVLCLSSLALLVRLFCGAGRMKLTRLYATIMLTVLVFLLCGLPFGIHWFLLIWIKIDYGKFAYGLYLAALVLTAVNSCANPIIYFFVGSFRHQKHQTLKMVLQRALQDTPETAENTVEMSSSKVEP

[2] = target: T2, Rat adenine receptor (Rattus norvegicus, UniProt Q7TN49); assay: Radioligand binding assay, [3H]adenine competition, rat cortical membrane preparations; conditions: rat cortex membranes, vs. 10 nM [3H]adenine, mean ± SEM
T2 construct: 50 μg of rat cortical membrane preparations; from tissue; host or cells: rat brain cortex membranes
T2 sequence (Q7TN49 1-304): T1 sequence (Q7TN49 1-304)
Protocol: (§1) Competition assays with [8-^3H]adenine (27 Ci/mmol; GE Healthcare) were carried out as described previously (Gorzalka et al., Mol. Pharmacol. 2005, 67, 955-964). In brief, 50 μg of rat cortical membrane preparations or 100 μg of protein (HEK293 (human embryonic kidney) cell membrane preparations) was incubated with 10 nM [8^3H]adenine in 50 mM Tris-HCl buffer, pH 7.4, in a total volume of 200 μl. Inhibition curves were determined using 6 to 9 different concentrations of selected adenine derivative. Three separate experiments were performed each in triplicate. Nonspecific binding was determined by using 100 μM adenine. Incubations were carried out for 1 h at room temperature and terminated by rapid filtration through GF/B glass fiber filters (Whatman, Dassel, Germany). Filters were washed three times with ice-cold 50 mM Tris-HCl buffer, pH 7.4, 3 ml each. Filter-bound radioactivity was measured by liquid scintillation counting.
(§2) Data points represent means±SEM of three separate experiments each performed in triplicate.

[3] = test system: Human adenine receptor; assay: Radioligand binding assay, [3H]adenine competition, HEK293 cell membrane preparations; conditions: HEK293 cell membranes, vs. 10 nM [3H]adenine, mean ± SEM
Protocol: as §1, §2

[4] = target: T1, rAde1R; assay: cAMP-dependent luciferase assay, inhibition of isoproterenol-stimulated cAMP accumulation; assay type: cell-based; conditions: for effect on isoproterenol-induced cAMP accumulation: 3 nM isoproterenol, n=3
Protocol: (§3) 1321N1 cells stably expressing the rAde1R were cultured in DMEM supplemented with 10% (v/v) FCS, L-glutamine (2 mM), penicillin (100 U/ml), streptomycin (100 U/ml) and 400 μg/ml G 418 at 37° C. under a humidified atmosphere containing 5% CO2. Cells were cultured in 75 cm^2 flasks (3.2×10^5) for 24 h without antibiotics so that they were 90-95% confluent before transfection. The cAMP responsive reporter plasmid (pCER-luc) or serum response element (pSRE-luc) was transfected into 1321N1 cells expressing rat adenine receptors using Lipofectamine 2000 as a transfection reagent.
Reporter cells were seeded at a density of […] cells/well in a 24-well plate 18-20 hr prior to assay. After removal of culture medium, cells were washed twice with Hanks' balanced salt solution (containing 20 mM HEPES, pH 7.3). Adenine and selected adenine derivatives were diluted in Hanks' balanced salt solution containing 3 nM isoproterenol and then incubated with reporter cells in the same buffer for 3 h at 37° C. The reaction was stopped by removal of the reaction buffer and the luciferase expression was determined using Bright-Glo™ Luciferase assay system (Promega) as described in the kit protocol. Plates were shaken for 2 min to ensure complete lysis of cells. Then the total volume from each well was transferred to a white 96-well plate (Greiner bio-one). Luminescence was determined using a NOVOstar microplate reader (BMG labtech); each well was counted for 2 s at 20° C.

[5] = target: T1, rAde1R; assay: Erk phosphorylation assay (SRE-dependent luciferase), 1321N1 cells expressing rAde1R; assay type: cell-based; conditions: 1321N1 astrocytoma cells stably expressing rAde1R, 6 h
Protocol: as §3
Erk phosphorylation was investigated by a gene reporter assay measuring SRE-dependent luciferase activity in astrocytoma cells stably transfected with the rat adenine receptor. The cells were seeded in a 24-well plate prior to the assay. The culture medium was removed and cells were washed twice with Hanks' balanced salt solution without HEPES, pH 7.3. Adenine was diluted in the same buffer and then added to the cells, which were incubated for 6 h at 37° C. The reaction was stopped by removal of the reaction buffer and the luciferase expression was determined as described before.

[6] = test system: non-transfected 1321N1 astrocytoma cells; assay: Erk phosphorylation assay (SRE-dependent luciferase), non-transfected cells; assay type: cell-based, human; conditions: 6 h
[7] = 10 μM compound, 1321N1 cells expressing rAde1R

| SMILES | melting point | Ki [2] | Ki [3] | other results |
| --- | --- | --- | --- | --- |
| CNCCC(=O)Nc1ncnc2[nH]cnc12 (as salt: hydrochloride) [Example 9, 3-Methyl-amino-N(9H-purin-6-yl)propionamide dihydrochloride] | 213 °C | – | – | – |
| Cn1cnc2ncnc-2c1N [1-methyl-adenine] | – | – | – | values at the rAde1R [1]: micromolar range |
| Cn1cnc(N)c2ncnc1-2 [3-methyl-adenine] | – | – | – | values at the rAde1R [1]: micromolar range |
| Cn1cnc2ncnc(N)c21 [7-methyl-adenine] | – | – | – | values at the rAde1R [1]: micromolar range |
| Cn1cnc2c(N)ncnc21 [9-methyl-adenine] | – | – | – | values at the rAde1R [1]: micromolar range |
| CN(CCC(=O)Nc1ncnc2[nH]cnc12)C(=O)OC(C)(C)C [Example 1, 3-(tert-Butyloxycarbonyl-methyl-amino)-N(9H-purin-6-yl)propionamide] | 205 °C | 0.949 ± 0.135 µM | 5.47 ± 1.28 µM | effect on isoproterenol-induced cAMP accumulation [4, 7]: adenine receptor agonists |
| CCN(CCC(=O)Nc1ncnc2[nH]cnc12)C(=O)OC(C)(C)C [Example 2, 3-(tert-Butyloxycarbonyl-ethyl-amino)-N(9H-purin-6-yl)propionamide] | 198 °C | 2.93 ± 0.4 µM | 7.7 ± 2.4 µM | – |
| CCCN(CCC(=O)Nc1ncnc2[nH]cnc12)C(=O)OC(C)(C)C [Example 3, 3-(tert-Butyloxycarbonyl-propyl-amino)-N(9H-purin-6-yl)propionamide] | 205 °C | 11.8 ± 0.8 µM | ≥ 100 µM | – |
| CCCCCCN(CCC(=O)Nc1ncnc2[nH]cnc12)C(=O)OC(C)(C)C [Example 4, 3-(tert-Butyloxycarbonyl-hexyl-amino)-N(9H-purin-6-yl)propionamide] | 185 °C | 1.56 ± 0.026 µM | 19.7 ± 0.7 µM | – |
| CC(C)(C)OC(=O)N(CCC(=O)Nc1ncnc2[nH]cnc12)CCc1ccccc1 [Example 6, 3-(tert-Butyloxycarbonyl-phenethyl-amino)-N(9H-purin-6-yl)propionamide] | 162 °C | 9.07 ± 0.8 µM | ≥ 100 µM | – |
| CC(C)(C)OC(=O)NCCC(=O)Nc1ncnc2[nH]cnc12 [Example 7, 3-tert-Butyloxycarbonylamino-N(9H-purin-6-yl)propionamide] | 191 °C | 0.334 ± 0.031 µM | 0.719 ± 0.081 µM | – |
| CC(C)(C)OC(=O)NCCCC(=O)Nc1ncnc2[nH]cnc12 [Example 8, 4-tert-Butyloxycarbonylamino-N(9H-purin-6-yl)butyramide] | 223 °C | 3.39 ± 0.56 µM | 2.68 ± 0.37 µM | – |
| CNCCC(=O)Nc1ncnc2[nH]cnc12 [Example 9, 3-Methyl-amino-N(9H-purin-6-yl)propionamide dihydrochloride] | – | 0.292 ± 0.056 µM | 1.83 ± 0.09 µM | effect on isoproterenol-induced cAMP accumulation [4, 7]: no significant effect; Kb ([4]; calculated from shift of adenine curve by 10 μM compound 9): 165 nM; effect on concentration-response curve of adenine ([4]; compound 9 at 10 μM, 1321N1 cells expressing rAde1R, FIG. 5): shifted the concentration-response curve of adenine to the right proving that it is an antagonist |
| Cl.NCCC(=O)Nc1ncnc2[nH]cnc12 [Example 14, 3-Amino-N(9H-purin-6-yl)propionamide hydrochloride] | 204 °C | 0.0215 ± 0.0056 µM | 0.0447 ± 0.0034 µM | effect on isoproterenol-induced cAMP accumulation ([4]; 1 μM compound, 1321N1 cells expressing rAde1R): adenine receptor agonists; inhibition of isoproterenol-stimulated cAMP accumulation by different concentrations ([4]; 1321N1 cells expressing rAde1R, FIG. 4): concentration-dependent inhibition |
| Cl.NCCCC(=O)Nc1ncnc2[nH]cnc12 [Example 15, 4-Amino-N(9H-purin-6-yl)butyramide hydrochloride] | 199 °C | 0.0805 ± 0.003 µM | 0.149 ± 0.045 µM | effect on isoproterenol-induced cAMP accumulation [4, 7]: adenine receptor agonists |
| Nc1ncnc2nc[nH]c12 [adenine] | – | – | – | EC50 ([4]; in the absence of compound 9): 2.24 ± 1.83 nM; EC50 ([4]; in the presence of compound 9 (10 μM)): 115 ± 42 nM; SRE-dependent luciferase expression / erk phosphorylation [5]: dose-dependent stimulation of erk phosphorylation; SRE-dependent luciferase expression / erk phosphorylation [6]: no effect; Ki [1]: 29.9 nM |

Continued, in another order:

| melting point | Ki [2] | SMILES | Ki [3] | other results |
| --- | --- | --- | --- | --- |
| 216 °C | – | CCNCCC(=O)Nc1ncnc2[nH]cnc12 (as salt: hydrochloride) [Example 10, 3-Ethyl-amino-N(9H-purin-6-yl)propionamide dihydrochloride] | – | – |
| 171 °C | – | CCCNCCC(=O)Nc1ncnc2[nH]cnc12 (as salt: hydrochloride) [Example 11, 3-Propyl-amino-N(9H-purin-6-yl)propionamide dihydrochloride] | – | – |
| 197 °C | – | O=C(CCNCc1ccccc1)Nc1ncnc2[nH]cnc12 (as salt: hydrochloride) [Example 12, 3-Benzyl-amino-N(9H-purin-6-yl)propionamide dihydrochloride] | – | – |
| 196 °C | – | O=C(CCNCCc1ccccc1)Nc1ncnc2[nH]cnc12 (as salt: hydrochloride) [Example 13, 3-Phenethyl-amino-N(9H-purin-6-yl)propionamide dihydrochloride] | – | – |
| 202 °C | 9.02 ± 0.55 µM | CC(C)(C)OC(=O)N(CCC(=O)Nc1ncnc2[nH]cnc12)Cc1ccccc1 [Example 5, 3-(tert-Butyloxycarbonyl-benzyl-amino)-N(9H-purin-6-yl)propionamide] | 42.1 ± 1.8 µM | – |
| – | 0.508 ± 0.163 µM | CCNCCC(=O)Nc1ncnc2[nH]cnc12 [Example 10, 3-Ethyl-amino-N(9H-purin-6-yl)propionamide dihydrochloride] | 1.34 ± 0.48 µM | effect on isoproterenol-induced cAMP accumulation [4, 7]: adenine receptor agonists |
| – | 1.29 ± 0.24 µM | CCCNCCC(=O)Nc1ncnc2[nH]cnc12 [Example 11, 3-Propyl-amino-N(9H-purin-6-yl)propionamide dihydrochloride] | 6.85 ± 2.17 µM | – |
| – | 0.852 ± 0.131 µM | O=C(CCNCc1ccccc1)Nc1ncnc2[nH]cnc12 [Example 12, 3-Benzyl-amino-N(9H-purin-6-yl)propionamide dihydrochloride] | 3.27 ± 1.23 µM | effect on isoproterenol-induced cAMP accumulation [4, 7]: adenine receptor agonists |
| – | 2.12 ± 0.07 µM | O=C(CCNCCc1ccccc1)Nc1ncnc2[nH]cnc12 [Example 13, 3-Phenethyl-amino-N(9H-purin-6-yl)propionamide dihydrochloride] | 6.93 ± 0.83 µM | – |
